# Key:
# [1] = system: normotensive volunteers / hypertensive patients; set-up: method as in PMID 11116103; conditions: cited from earlier work
# [2] = cited from earlier work
# [3] = system: healthy volunteers; test: Airway inflammation by fractional exhaled nitric oxide (FeNO); type: in vivo, human
# Description: FeNO measurements were always performed before cough challenges using a standardized single-breath method with an electrochemical analyzer (HypAir FeNO system, Medisoft, Sorinnes, BE). Subjects were seated (with no nose clip), and exhaled to residual volume, inserted the mouthpiece, inhaled to total lung capacity, then exhaled for 10 seconds at a constant flow rate of 0.05 L/s ± 10%. The end-point of measurement was considered when a plateau of at least 4 seconds was observed. Exhalations were repeated after a 30-second period of relaxation until 3 independent FeNO values with ≤10% variation were obtained.
# [4] = system: healthy volunteers; test: Adverse event and vital signs monitoring; type: in vivo, human
# Method: (§1) This was a repeated-dose, balanced, two-sequence, two-period, two-treatment, non-placebo controlled, randomized, crossover design study. Since this study examined two ACE-i agents with similar characteristics and was performed using an open design, blinding was not necessary. […] The administered doses were those used for treatment of hypertension and which would yield a similar percentage of responders.
# [5] = system: guinea pigs; conditions: cited from earlier work
# [6] = system: healthy volunteers; test: Capsaicin cough challenge (cough sensitivity C2/C5); type: in vivo, human
# Method: as §1
# (§2) Capsaicin and citric acid cough challenges were performed prior to and following each 7-day treatment period (Table 2). Cough sensitivity was assessed as the lowest capsaicin or citric acid concentrations causing at least 2 (C2) or 5 coughs (C5), provided that cough was still present following inhalation of the next tussigenic concentration. C2 and C5 values were converted to logC2 and logC5, respectively, for analysis. Concentrations of both capsaicin and citric acid were prepared according to standard procedures, nebulized by a jet nebulizer (DeVilbiss 646, DeVilbiss Health Care Inc., Somerset, PA) driven by compressed air (8 L/min), and inhaled for 1 min during normal tidal breathing. Volunteers undergoing cough challenges were specifically instructed not to attempt to suppress coughs and not to talk immediately after inhalation of the tussigenic agent. In addition, subjects were given the following instruction: “allow yourself to cough if you need to, and as much as you need to”. Subjects were also requested to note on a diary the occurrence of spontaneous cough during the two 7-day treatment periods, using a verbal scale.
# [7] = single dose, cited from earlier work
# [8] = system: bradykinin (BK); test: Bradykinin plasma levels; type: in vivo, human; conditions: day 7 of treatment period, zofenopril 30 mg vs ramipril 10 mg
# Method: (§3) Blood samples for the measurement of PK parameters and for BK determination were obtained at pre-dose and after drug administration for each of the two study periods (Table 2). […] Repeated pre-dose PK variables determination was performed in order to establish baseline variability.
# [9] = system: rabbits; conditions: cited from earlier work
# [10] = system: healthy volunteers; test: Spontaneous cough recordings (diary); type: in vivo, human; conditions: for total distinct coughing episodes: during 7-day treatment, 40 volunteers; for volunteers who recorded at least 1 spontaneous coughing episode: out of 40, during 7-day treatment
# Method: as §2
# A p value <0.05 was considered statistically significant.
# [11] = system: healthy volunteers; test: Citric acid cough challenge (cough sensitivity C2/C5); type: in vivo, human
# Method: as §1, §2
# [12] = Plasma pharmacokinetics at steady state (day 7)
# Method: as §3
# Spontaneous cough occurring during the two treatment periods was only qualitatively assessed, as the prevalence was expected to be low or very low. AUCss,τ PK parameters were calculated from the individual concentration-time data by using the program WinNonlin software (Pharsight Corporation, Mountain View, CA, USA) and summarized by treatment by means of descriptive statistics, in order to determine mean and standard deviation values. Paired t-test was used to compare mean FeNO values recorded after administration of the test and the reference drug. Statistical analyses were performed by using GraphPad Prism, version 3.02 (GraphPad Software, Inc. La Jolla, CA); sample size and power calculations were performed by using a dedicated software (nQuery Advisor, release 2.0, Los Angeles, CA). A p value <0.05 was considered statistically significant.
# [13] = system: plasma ACE activity; conditions: at 24 h after single oral doses of 30 mg; cited from earlier work
# [14] = system: prostaglandins; set-up: method as in PMID 1850188; conditions: in-vivo study, compared with other ACE-i; cited from earlier work
# [15] = system: ACE; conditions: compared with complexes of other ACE inhibitors; cited from earlier work
smiles,measurement,setting,value
CCOC(=O)[C@H](CCc1ccccc1)N[C@@H](C)C(=O)N1CCC[C@H]1C(=O)O [enalapril],effect on FeNO in hypertensive patients,[1],did not show FeNO increase
same,effect on FeNO in normotensive volunteers,[1]; within a few hours,capable of increasing FeNO
C[C@H](CS)C(=O)N1C[C@@H](Sc2ccccc2)C[C@H]1C(=O)O [zofenoprilat],time to peak blood levels,[2]; after oral administration of zofenopril,1.5 h
CCOC(=O)[C@H](CCc1ccccc1)N[C@@H](C)C(=O)N1[C@H](C(=O)O)C[C@@H]2CCC[C@@H]21 [ramipril],"FeNO, mean ± SD",[3]; in vivo,33 ± 16 PPB
same,subjects reporting adverse events of mild intensity,"[4]; human, in vivo, 7 days",5
same,augmentation of citric-acid induced cough,[5],40-60%
same,"capsaicin LogC5 (concentration causing at least 5 coughs), mean ± SD","[6]; human, in vivo, 7 days",0.45 ± 0.38 μM
same,time to peak antihypertensive effect,[7]; after oral administration,3 to 6 h
same,duration of antihypertensive effect,[7]; oral,24 h
same,BK plasma levels after administration,[8],No difference
same,cough response induced by mechanical and chemical airway stimulation,[9],increased
same,total distinct coughing episodes,[10],24
same,volunteers who recorded at least 1 spontaneous coughing episode,[10],9
same,"citric acid LogC2, mean ± SD","[11]; human, in vivo, 7 days",1.48 ± 1.09 mM
same,"citric acid LogC5, mean ± SD","[11]; human, in vivo, 7 days",2.23 ± 1.04 mM
C[C@H](CSC(=O)c1ccccc1)C(=O)N1C[C@@H](Sc2ccccc2)C[C@H]1C(=O)O [zofenopril],"FeNO, mean ± SD","[3]; after 7-day treatment, controls 22 ± 12 (zofenopril), 24 ± 9.6 (ramipril)",26 ± 12 PPB
same,subjects reporting adverse events of mild intensity,"[4]; of 40 subjects, headache, vomit, backache, vertigo",8
same,effect on citric-acid induced cough,[5],did not increase
same,oral absorption,[2]; after oral administration,completely absorbed
same,"capsaicin LogC2 (concentration causing at least 2 coughs), mean ± SD","[6]; after 7-day treatment (zofenopril 30 mg/day, ramipril 10 mg/day), 40 volunteers, controls 0.81 ± 0.42 (zofenopril), 0.78 ± 0.41 (ramipril)",0.75 ± 0.40 μM
same,"capsaicin LogC5 (concentration causing at least 5 coughs), mean ± SD","[6]; after 7-day treatment, 40 volunteers, controls 1.4 ± 0.72 (zofenopril), 1.3 ± 0.63 (ramipril)",1.3 ± 0.68 μM
same,Cmin (lowest plasma concentration in the τ period),[12]; 24 h interval after administration on day 7,0
same,"AUCss,τ, mean ± SD","[12]; 24 h interval after drug administration on day 7, zofenopril 30 mg/day or ramipril 10 mg/day oral",84.25 ± 34.47 ng/ml x h
same,BK plasma levels after administration,[8],No difference
same,suppression of plasma ACE activity,[13],74.4%
same,cough response induced by mechanical and chemical airway stimulation,[9],"but not zofenopril, increased"
same,total distinct coughing episodes,[10],36
same,volunteers who recorded at least 1 spontaneous coughing episode,[10],7
same,capability to stimulate the production of prostaglandins,[14],less than that of other ACE-i
same,"citric acid LogC2, mean ± SD","[11]; after 7-day treatment, 40 volunteers, controls 1.85 ± 1.24 (zofenopril), 1.80 ± 1.28 (ramipril)",1.81 ± 1.27 mM
same,"citric acid LogC5, mean ± SD","[11]; after 7-day treatment, 40 volunteers, controls 2.69 ± 1.88 (zofenopril), 2.67 ± 2.01 (ramipril)",2.51 ± 1.57 mM
C[C@H](N[C@@H](CCc1ccccc1)C(=O)O)C(=O)N1[C@H](C(=O)O)C[C@@H]2CCC[C@@H]21 [ramiprilat],time to peak plasma concentrations,[2]; after intake of ramipril,2 to 4 h
same,stability/dissociation of inhibitor-ACE complex,[15],dissociates more slowly

# Reference: PMC4308941 (Cough (London, England), 2014)
